Several values for one entry are separate records, joined by “and”; a condition that tells them apart may be missing. Equal entries are not always repeated. Where two headings read alike, the source gives them in different places. Blank lines part the entries; values can stand above or below the molecule they belong to. Where a SMILES comes first, the peptide text is derived from it. Bridges are numbered along the chain shown (N, C = ends). [ ]: non-standard residue; d: D form. Orn(fluoroacetimidoyl) = N=C(CF)NCCC[C@H](N)C(=O)O
What was measured:
[1] = system: PADIs 1-4; assay: COLDER citrullination activity of purified PADIs 1-4 and PADI4 C645A (no inhibitor); format: biochemical, human; design: key to Citrullination activity of PADI4 WT / C645A (Figure S4c): absorbance at 540 nm (colorimetric citrulline readout); details: for Citrullination activity of PADI4 WT / C645A (Figure S4c): no inhibitor; for Absorbance at 540 nm: purified PADI enzyme, no inhibitor (Figure S10)
Procedure: (§1) PADI4 citrullination activity was analysed using the COLDER assay in 96-well plates. Peptide dilutions were prepared from a 500 µM stock, to give a 10 times concentrated dilution series (500 µM, 300 µM, 100 µM, 30 µM, 10 µM, 3 µM, 1 µM, 0.3 µM, 0.1 µM and 0.03 µM) in COLDER buffer (50 mM HEPES, 150 mM NaCl and 2 mM DTT, pH 7.5) containing 1% DMSO. In triplicate, each was diluted 10-fold further when mixed with 50 nM His-PADI4, 0.6 mg/mL BSA and 10 mM CaCl2, in COLDER buffer. With or without one hour of incubation, 10 mM N^α-Benzoyl-L-arginine ethyl ester hydrochloride (BAEE, Merck) was added to initiate the reaction (50 µL final volume). After 30 min at rt, EDTA (50 mM final concentration) was used to quench the reaction and 200 µL of COLDER solution containing 20 mM Diacetyl monoxime/2,3-butanedione monoxime (Merck), 0.5 mM Thiosemicarbazide (Acros Organics), 2.25 M H3PO4, 4.5 M H2SO4 and 1.5 mM NH4Fe(SO4)2.12H2O was added to each well. Samples were incubated for 20 min at 95 °C before measuring absorbance at 540 nm on a CLARIOstar Plus (BMG LABTECH). Data analysis was performed with GraphPad Prism. Data are presented as the average ± standard error of the mean from at least two independent replicates.

[2] = target: T1, PADI4 (Homo sapiens, UniProt Q9UM07); assay: COLDER inhibition assay, BAEE substrate, with or without 1 h preincubation; format: biochemical; details: for IC50: COLDER; for remaining activity at 0.003 µM: peptide 0.003 µM
T1 construct: His6; made in house
Procedure: as §1

[3] = target: T1, PADI4; assay: Incubation time-dependent COLDER assay IC50(t), Krippendorff fit; format: biochemical; details: for IC50: replicates, read-out: apparent IC50
Procedure: To determine KI and kinact of covalent peptide inhibitors, COLDER assays were used[52]. Peptide dilutions were prepared using 5-fold dilutions from 500 µM and 300 µM to 0.8 µM and 2.4 µM, respectively, at 1% DMSO in COLDER buffer (50 mM HEPES, 150 mM NaCl and 2 mM DTT, pH 7.5). The 9 peptide dilutions were added to a 96-well plate, alongside a 1% DMSO control. An equal volume of 10 mM BAEE was added to each well and the solution was homogenised by pipette mixing. This was mixed with 50 nM His-PADI4, 0.6 mg/mL BSA and 10 mM CaCl2, in COLDER buffer, to bring the final volume to 300 µL in each well. Alternatively, His-PAD1 (100 nM) /His-PADI2 (100 nM) /His-PADI3 (250 nM) were used. For assays with PADI1 and PADI3, 10 mM N^α-benzoyl-L-arginine methyl […] (BAME) was used as the substrate instead of BAEE[48],[58],[59]. At 15-minute intervals, for 5 timepoints, 50 µL of solution was taken from each well and quenched with 10 µL EDTA (300 mM). 200 µL of COLDER solution containing 20 mM diacetyl monoxime/2,3-butanedione monoxime (Merck), 0.5 mM thiosemicarbazide (Acros Organics), 2.25 M H3PO4, 4.5 M H2SO4 and 1.5 mM NH4Fe(SO4)2.12H2O was added to each well. Samples were incubated for 20 min at 95 °C before measuring absorbance at 540 nm on a CLARIOstar Plus (BMG LABTECH). IC50 values for each time point were determined using non-linear regression with GraphPad Prism. Incubation time–dependent potency IC50(t) against incubation time was fitted to the Krippendorff equation (below) to determine KI and kinact using a Python script[53],[59]. […] IC50t=KI1+S/KM⋅2−2e^−ηIC50⋅kinact⋅t/ηIC50⋅kinact⋅t−1 WhereηIC50=IC50t/KI1+S/KM+IC50t

[4] = target: T1, PADI4; assay: Surface plasmon resonance (SPR), single cycle kinetics; format: binding
Procedure: S8. Surface plasmon resonance (SPR)
Using a Biacore S200 (GE Healthcare), biotinylated His-PADI4 (80 nM) was immobilised on a CAP chip (GE Healthcare) to a response unit of approx. 3000. At 25 °C, single cycle kinetics mode was used with 5 samples of a 3-fold dilution series of peptides PADI4_3_H4(2), cP4_2, […]
mM HEPES, 150 mM NaCl, 10 mM CaCl2, 0.05% Tween-20, 0.1% DMSO (pH 7.5). After each cycle, regeneration of the chip was carried out as per the manufacturer’s protocol. Data were analysed with the Biacore S200 Evaluation Software, each in triplicate. Warhead-containing peptides were analysed using the two-state reaction model, with the rate constant for the reverse second step (k-2) set to zero. The equilibrium constant of the reversible binding step, Ki, was calculated as the ratio of k-1/k+1 and the rate constant of the irreversible chemical step, kinact, as k+2. The Arg4, Cit4 and Me4 peptides were fitted using a 1:1 binding model. […]

[5] = Krippendorff fit of IC50 vs time

T1 sequence (Q9UM07 whole entry): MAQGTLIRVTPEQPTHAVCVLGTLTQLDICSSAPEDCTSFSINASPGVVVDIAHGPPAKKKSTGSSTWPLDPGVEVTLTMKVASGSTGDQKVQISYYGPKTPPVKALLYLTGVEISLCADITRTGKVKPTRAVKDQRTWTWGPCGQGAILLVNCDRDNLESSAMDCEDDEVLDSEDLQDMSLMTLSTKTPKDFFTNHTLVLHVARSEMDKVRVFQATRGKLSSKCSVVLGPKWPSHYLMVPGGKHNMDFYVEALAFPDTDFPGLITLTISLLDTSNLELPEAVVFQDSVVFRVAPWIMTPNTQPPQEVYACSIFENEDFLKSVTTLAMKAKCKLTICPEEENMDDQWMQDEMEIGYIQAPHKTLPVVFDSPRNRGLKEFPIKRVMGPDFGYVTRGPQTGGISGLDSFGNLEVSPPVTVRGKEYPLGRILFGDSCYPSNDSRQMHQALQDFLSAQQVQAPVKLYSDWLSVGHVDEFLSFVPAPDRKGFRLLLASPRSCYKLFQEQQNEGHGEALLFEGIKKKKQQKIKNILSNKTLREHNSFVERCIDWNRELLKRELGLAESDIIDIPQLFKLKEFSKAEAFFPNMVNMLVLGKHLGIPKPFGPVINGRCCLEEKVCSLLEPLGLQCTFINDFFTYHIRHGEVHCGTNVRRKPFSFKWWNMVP

Molecule: WT
Citrullination activity of PADI4 WT / C645A (Figure S4c) ([1]; +EDTA): 0.259 and 0.261 and 0.247 and 0.193 and 0.23 and 0.231 | Citrullination activity of PADI4 WT / C645A (Figure S4c) ([1]; -EDTA): 1.114 and 1.151 and 1.275 and 1.3 and 1.248

Molecule: PADI4
Absorbance at 540 nm [1]: 1.538 and 1.537 and 1.638 and 1.921 and 1.811 and 1.856

Molecule: C645A
Citrullination activity of PADI4 WT / C645A (Figure S4c) ([1]; +EDTA): 0.268 and 0.278 and 0.279 and 0.186 and 0.254 and 0.214 | Citrullination activity of PADI4 WT / C645A (Figure S4c) ([1]; -EDTA): 0.211 and 0.22 and 0.222 and 0.281 and 0.285 and 0.262

IC50 ([2]; 1 h preincubation of peptide and PADI4, 10 mM CaCl2, read-out: IC50 Values 1 h preincubation): 0.16 ± 0.02 µM | IC50 ([2]; no preincubation of peptide and PADI4, 10 mM CaCl2, read-out: IC50 Values 0 h preincubation): 8 ± 1.2 µM | remaining activity at 0.003 µM ([2]; T=0, values starred, read-out: PADI4 activity normalised to 0.1% DMSO): 99.1% | remaining activity at 0.003 µM ([2]; T=1, read-out: PADI4 activity normalised to 0.1% DMSO): 99.2% | remaining activity at 0.01 µM ([2]; peptide 0.01 µM, T=0, values starred, read-out: PADI4 activity normalised to 0.1% DMSO): 99.2% | remaining activity at 0.1 µM ([2]; peptide 0.1 µM, T=0, read-out: PADI4 activity normalised to 0.1% DMSO): 100% | remaining activity at 1 µM ([2]; peptide 1 µM, T=0, read-out: PADI4 activity normalised to 0.1% DMSO): 93.8% | remaining activity at 3 µM ([2]; peptide 3 µM, T=0, read-out: PADI4 activity normalised to 0.1% DMSO): 79% | remaining activity at 10 µM ([2]; peptide 10 µM, T=0, read-out: PADI4 activity normalised to 0.1% DMSO): 49.3% | remaining activity at 30 µM ([2]; peptide 30 µM, T=0, read-out: PADI4 activity normalised to 0.1% DMSO): 20.9% | kinact/KI [3]: 300 M⁻¹ s⁻¹ | IC50 ([3]; 15 mins): 27.7 µM and 48.2 µM and 40.3 µM | IC50 ([3]; 30 mins): 12.5 µM and 21.4 µM and 18.5 µM | IC50 ([3]; 45 mins): 8.85 µM and 10 µM and 8.94 µM | IC50 ([3]; 60 mins): 6.22 µM and 7.03 µM and 7.47 µM | IC50 ([3]; 75 mins): 5.35 µM and 5.67 µM and 6.53 µM | Ki [3, 5]: 4.3 ± 1.1 µM | kinact [3, 5]: 0.00128 s⁻¹ | kinact/KI [4]: 5720 M⁻¹ s⁻¹ | k2 / kinact ([4]; each replicate): 0.0094 s⁻¹ | kinact ([4]; each replicate, read-out: k2 / kinact): 0.0086 s⁻¹ | kinact ([4]; two-state reaction model, k+2, read-out: SPR kinact (converted)): 0.00917 s⁻¹ | Ki ([4]; two-state reaction model, k-1/k+1): 1.6 ± 0.1 µM
Molecule: CC(C)[C@@H]1NC(=O)[C@@H](Cc2ccc(O)cc2)NC(=O)CSC[C@@H](C(=O)NCC(N)=O)NC(=O)[C@H](Cc2ccc(O)cc2)NC(=O)[C@H](CCCCN)NC(=O)[C@H](Cc2c[nH]c3ccccc23)NC(=O)[C@H](CCC(=O)O)NC(=O)[C@H](CCCCN)NC(=O)[C@H](CCCNC(=N)CF)NC(=O)[C@H](CO)NC(=O)[C@H](Cc2ccc(O)cc2)NC1=O [cP4_7, yVYS(2)KEWKYCG] ({CH2CO}-[dY]VYS[Orn(fluoroacetimidoyl)]KEWKYCG-NH2; thioether N-11)

Molecule: PADI2
Absorbance at 540 nm [1]: 0.974 and 1.004 and 1.007 and 0.7767 and 0.7637 and 0.7657

B1: PADI1 (protein, UniProt Q9ULC6 1-663, looked up)
Protein-arginine deiminase …: MAPKRVVQLSLKMPTHAVCVVGVEAHVDIHSDVPKGANSFRVSGSSGVEVFMVYNRTRVKEPIGKARWPLDTDADMVVSVGTASKELKDFKVRVSYFGEQEDQALGRSVLYLTGVDISLEVDTGRTGKVKRSQGDKKTWRWGPEGYGAILLVNCDRDNHRSAEPDLTHSWLMSLADLQDMSPMLLSCNGPDKLFDSHKLVLNVPFSDSKRVRVFCARGGNSLSDYKQVLGPQCLSYEVERQPGEQEIKFYVEGLTFPDADFLGLVSLSVSLVDPGTLPEVTLFTDTVGFRMAPWIMTPNTQPPEELYVCRVMDTHGSNEKFLEDMSYLTLKANCKLTICPQVENRNDRWIQDEMEFGYIEAPHKSFPVVFDSPRNRGLKDFPYKRILGPDFGYVTREIPLPGPSSLDSFGNLDVSPPVTVGGTEYPLGRILIGSSFPKSGGRQMARAVRNFLKAQQVQAPVELYSDWLSVGHVDEFLTFVPTSDQKGFRLLLASPSACLKLFQEKKEEGYGEAAQFDGLKHQAKRSINEMLADRHLQRDNLHAQKCIDWNRNVLKRELGLAESDIVDIPQLFFLKNFYAEAFFPDMVNMVVLGKYLGIPKPYGPIINGRCCLEEKVQSLLEPLGLHCIFIDDYLSYHELQGEIHCGTNVRRKPFPFKWWNMVP
Absorbance at 540 nm [1]: 1.397 and 1.419 and 1.464 and 1.243 and 1.309 and 1.332

B2: PADI3 (protein, UniProt Q9ULW8 1-664, looked up)
Protein-arginine deiminase …: MSLQRIVRVSLEHPTSAVCVAGVETLVDIYGSVPEGTEMFEVYGTPGVDIYISPNMERGRERADTRRWRFDATLEIIVVMNSPSNDLNDSHVQISYHSSHEPLPLAYAVLYLTCVDISLDCDLNCEGRQDRNFVDKRQWVWGPSGYGGILLVNCDRDDPSCDVQDNCDQHVHCLQDLEDMSVMVLRTQGPAALFDDHKLVLHTSSYDAKRAQVFHICGPEDVCEAYRHVLGQDKVSYEVPRLHGDEERFFVEGLSFPDAGFTGLISFHVTLLDDSNEDFSASPIFTDTVVFRVAPWIMTPSTLPPLEVYVCRVRNNTCFVDAVAELARKAGCKLTICPQAENRNDRWIQDEMELGYVQAPHKTLPVVFDSPRNGELQDFPYKRILGPDFGYVTREPRDRSVSGLDSFGNLEVSPPVVANGKEYPLGRILIGGNLPGSSGRRVTQVVRDFLHAQKVQPPVELFVDWLAVGHVDEFLSFVPAPDGKGFRMLLASPGACFKLFQEKQKCGHGRALLFQGVVDDEQVKTISINQVLSNKDLINYNKFVQSCIDWNREVLKRELGLAECDIIDIPQLFKTERKKATAFFPDLVNMLVLGKHLGIPKPFGPIINGCCCLEEKVRSLLEPLGLHCTFIDDFTPYHMLHGEVHCGTNVCRKPFSFKWWNMVP
Absorbance at 540 nm [1]: 1.346 and 1.369 and 1.38 and 1.26 and 1.243 and 1.268
